Source: BindingDB's records for doi:10.1074/jbc.M113.476473 (Uppsala University, 2013)

Tests used:
[1] = biological target: T1, Pantothenate kinase (Mycobacterium tuberculosis (strain ATCC 25618 / H37Rv), UniProt P9WPA7); test: Biochemical Assay (ATP at Km)
T1 sequence (P9WPA7 whole entry): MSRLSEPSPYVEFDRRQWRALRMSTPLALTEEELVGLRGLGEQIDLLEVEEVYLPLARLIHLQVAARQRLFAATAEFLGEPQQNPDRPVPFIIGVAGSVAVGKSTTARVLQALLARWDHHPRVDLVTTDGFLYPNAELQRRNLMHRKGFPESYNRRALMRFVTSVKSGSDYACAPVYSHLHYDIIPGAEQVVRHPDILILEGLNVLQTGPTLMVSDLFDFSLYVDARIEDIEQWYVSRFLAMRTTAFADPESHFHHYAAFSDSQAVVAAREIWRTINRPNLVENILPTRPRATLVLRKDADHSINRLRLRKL
Procedure: Briefly, MtPanK activity was measured in a pyruvate kinaselactate dehydrogenase-coupled assay where the reaction rate was determined by spectrophotometric measurement of NADH consumption. IC50 measurements were performed with a suitable concentration range of inhibitory compound, while keeping the concentration of pantothenate and ATP at 122 and 395 µM, respectively, which is their respective Km.

[2] = biological target: T1, Pantothenate kinase; test: Biochemical Assay (ATP at 50x Km)
Procedure: Briefly, MtPanK activity was measured in a pyruvate kinaselactate dehydrogenase-coupled assay where the reaction rate was determined by spectrophotometric measurement of NADH consumption. A second set of IC50 measurements were performed with the ATP concentration at 50× Km, to determine the effect of cofactor competition.

Row | Structure (SMILES) | IC50 [1] | IC50 [2]
1 | CC(NC(=O)c1ccccc1C(F)(F)F)c1nnc(SCCOc2ccc(F)cc2)n1C (stereo not given) [Triazole 1a] | 90 nM | 5500 nM
2 | CC(NC(=O)c1ccccc1C(F)(F)F)c1nnc(SCc2ccc(F)cc2)n1C (stereo not given) [Triazole 1c] | 150 nM | 10400 nM
3 | N#Cc1ccc(-c2ccc(OCC(N)=O)cc2CN2CCN(c3ccccn3)CC2)cc1 [Biaryl 2b] | 550 nM | –
4 | CC(NC(=O)c1ccccc1C(F)(F)F)c1nnc(SCCOc2ccc(F)cc2)n1Cc1ccc(F)cc1 (stereo not given) [Triazole 1e] | 50 nM | 690 nM
5 | CC(NC(=O)c1c(F)cccc1F)c1nnc(SCCOc2ccc(F)cc2)n1C (stereo not given) [Triazole 1f] | 1090 nM | 14000 nM
6 | N#Cc1ccc(-c2ccc(COC(=O)O)cc2CN2CCN(c3ccccn3)CC2)cc1 [Biaryl 2a] | 120 nM | 130 nM
7 | CC(NC(=O)c1ccccc1Cl)c1nnc(SCCOc2ccc(F)cc2)n1C (stereo not given) [Triazole 1b] | 1130 nM | > 12500 nM
8 | Cc1ccccc1OCCSc1nnc(C(C)NC(=O)c2ccccc2C(F)(F)F)n1C (stereo not given) [Triazole 1d] | 140 nM | 2820 nM
